For this test, the target named is factor Xa (Homo sapiens, UniProt P00742). In words: Inhibitory action towards factor Xa activity (methods of WO0216312). The format is biochemical. The note with it: read-out: IC50 value (factor Xa inhibition). How it is done: Determinations of the inhibitory action towards factor Xa activity were carried out in accordance with the methods described in WO0216312.

Molecules are shown by their SMILES.

A word on the IC50: it is the midpoint of a concentration-inhibition curve.

factor Xa, sequence (P00742 235-488 limits assumed): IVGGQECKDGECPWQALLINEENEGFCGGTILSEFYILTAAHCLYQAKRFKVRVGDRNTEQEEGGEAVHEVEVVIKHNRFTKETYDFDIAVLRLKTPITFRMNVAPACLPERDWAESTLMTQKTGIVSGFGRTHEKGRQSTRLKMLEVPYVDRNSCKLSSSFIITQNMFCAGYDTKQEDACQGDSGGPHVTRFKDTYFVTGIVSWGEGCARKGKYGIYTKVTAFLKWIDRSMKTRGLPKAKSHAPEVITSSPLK
factor Xa, sequence (P00742 41-179 partner limits assumed): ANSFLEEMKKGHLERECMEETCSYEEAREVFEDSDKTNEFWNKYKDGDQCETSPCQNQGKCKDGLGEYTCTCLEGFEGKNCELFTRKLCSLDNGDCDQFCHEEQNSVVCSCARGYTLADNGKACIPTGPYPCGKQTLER

As for `CN1CCN(C(=O)CNC(=O)C(Nc2cccc(C(=N)N)c2)c2ccccc2O[C@@H]2O[C@H](CO)[C@@H](O)[C@H](O)[C@H]2O)CC1` (single isomer, unassigned) [Example 1, 2-(3-Carbamimidoyl-phenylamino)-N-[2-(4-methyl-piperazin-1-yl)-2-oxo-ethyl]-2-[2-(3,4,5-trihydroxy-6-hydroxymethyl-tetrahydro-pyran-2-yloxy)-phenyl]-acetamide], the IC50 lay within 0.1 to 10 nM.

(Values after US20080051388A1, “Novel Compounds That Inhibit Factor Xa Activity” (Morphochem Aktiengesellschaft Fur Kombinatorische Chemie, priority 2004, published 2008).)
